The numbers were not newly measured in patent US20240217930A1 (priority 2021, published 2024), which cites them from elsewhere.

The conditions of data set [1]: trials performed in cats; cited from earlier work.
Another data set has as its system live virus. Conditions: cited from earlier work.
In data set [2] the test system is ten further coronavirus strains. Conditions: read-out: Ki against ten further coronavirus strains; cited from earlier work.

As to `CC(C)C[C@H](NC(=O)OCc1ccccc1)C(=O)N[C@@H](C[C@@H]1CCNC1=O)C(O)S(=O)(=O)[O-].[Na+]` (stereo partly drawn) [GC376], the “side effects in cats” value in data set [1] is “has shown side effects”.

As usually defined, the Ki is a measure of affinity in units of concentration, obtained from inhibition or displacement. As to PF-00835231, the “activity in cell-based live virus assays” value in the data set with live virus was about 1 µM. In addition, in data set [2], the inhibitory constant (Ki) is 0.03 to 4 nM.
